This note sets out measurements from ChEMBL document CHEMBL1201862, “PubChem BioAssay data set” (2004).

Test systems include A549; Hs-578T; LOX IMVI; MOLT-4; MCF7; 786-0; MDA-MB-435; SF-539; OVCAR-8; EKVX; ACHN; KM12; COLO 205; HOP-62; SF-295; SNB-75; SN12C; HL-60; MDA-N; NCI-H522.
What all share (test): inhibition of tumour cell growth, NCI panel, 48 h

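Protocol summary: plate cells (96-well), add compound at 5 concentrations, incubate 48 h, interpolate endpoints linearly. GI50: concentration for 50% inhibition of growth.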 Activity calls are given as the source filed them. Cut-off read from the data, not from the text of the source: active = GI50 up to about 1.1 µM and inactive = higher. A value given as a limit tells only on which side of the number the result lay.

With `CC1C[C@]2(C)C(NCCN)=Nc3ccccc3[C@@H]2N(C)c2ccccc21` (some centres undefined), the GI50 in the experiment with A549 is 16.4 µM (inactive); in the experiment on Hs-578T, 18.3 µM (inactive); in the experiment on LOX IMVI, 12.7 µM (inactive); in the experiment on MOLT-4 it was 27.8 µM (inactive); in the experiment with MCF7, 8.18 µM (inactive); in the experiment on 786-0, 12.2 µM (inactive). Moreover, the GI50 with MDA-MB-435 was 10.7 µM (inactive); in the experiment with SF-539, 12.4 µM (inactive); with OVCAR-8, 14.7 µM (inactive); in the experiment with EKVX, 16.8 µM (inactive); in the experiment on ACHN it was 16.3 µM (inactive); in the experiment on KM12, 16 µM (inactive). For the same compound, the GI50 in the experiment on COLO 205 was 2.23 µM (inactive); with HOP-62, 16.1 µM (inactive); in the experiment on SF-295 it was 17.9 µM (inactive); in the experiment on SNB-75, 3.45 µM (inactive); with SN12C it was 14.4 µM (inactive); with HL-60, 16.2 µM (inactive). The GI50 in the experiment on MDA-N is 13.9 µM (inactive).
`O=C1N[C@H](C(=O)O)[C@@H](c2ccc(OCc3ccccc3)cc2)O1`: the GI50 is 81.5 µM (inactive) with A549; 27.5 µM (inactive) in the experiment with Hs-578T; > 100 µM (inactive) in the experiment on MOLT-4; 37.1 µM (inactive) in the experiment with MCF7; 16.6 µM (inactive) with 786-0; > 100 µM (inactive) in the experiment with MDA-MB-435. Also, the GI50 with OVCAR-8 is 20.7 µM (inactive); in the experiment with EKVX, 22.4 µM (inactive); with ACHN, 36.5 µM (inactive); in the experiment on KM12, > 100 µM (inactive); with COLO 205, > 100 µM (inactive); in the experiment with HOP-62, 13.6 µM (inactive). Moreover, the GI50 is 26.1 µM (inactive) with SF-295; 10.8 µM (inactive) in the experiment with SNB-75; 37.3 µM (inactive) in the experiment on NCI-H522; 45.1 µM (inactive) in the experiment on SN12C; > 100 µM (inactive) in the experiment on MDA-N.
As for `OC1c2ccccc2CCC1CN1CCN(CCOC(c2ccc(F)cc2)c2ccc(F)cc2)CC1` (centres undefined), the GI50 is 23.6 µM (inactive) with A549; 17.9 µM (inactive) in the experiment on Hs-578T; 13.8 µM (inactive) in the experiment with LOX IMVI; 8.83 µM (inactive) in the experiment with MOLT-4; 14.5 µM (inactive) in the experiment on MCF7; 11.7 µM (inactive) in the experiment on 786-0. Besides, the GI50 in the experiment with MDA-MB-435 was 17.5 µM (inactive); in the experiment on SF-539 it was 0.186 µM (active); with OVCAR-8, 14.3 µM (inactive); in the experiment with ACHN it was 21.6 µM (inactive); with KM12 it was 20.5 µM (inactive); with COLO 205, 1.72 µM (inactive). Besides, the GI50 in the experiment on HOP-62 is 20.5 µM (inactive); with SF-295 it was 18 µM (inactive); in the experiment with SNB-75 it was 20.3 µM (inactive); in the experiment with NCI-H522, 15.7 µM (inactive); with SN12C, 13.1 µM (inactive); with MDA-N, 15.8 µM (inactive).
In the case of `Cc1ccc(S(=O)(=O)NC2C(=O)c3ccccc3C(=O)C2n2cnc3ccccc32)cc1` (centres undefined), the GI50 with A549 was 33.5 µM (inactive); in the experiment with Hs-578T, 51.6 µM (inactive); in the experiment on LOX IMVI it was 31.8 µM (inactive); with MOLT-4, 19.2 µM (inactive); with MCF7, 31.6 µM (inactive); with 786-0, 39.5 µM (inactive). Further, the GI50 is 18.6 µM (inactive) in the experiment on MDA-MB-435; 24.7 µM (inactive) in the experiment on SF-539; 29.4 µM (inactive) with OVCAR-8; 34.3 µM (inactive) in the experiment on EKVX; 24.3 µM (inactive) with ACHN; 9.4 µM (inactive) in the experiment with KM12. For the same compound, the GI50 is 20 µM (inactive) in the experiment with COLO 205; 50.4 µM (inactive) in the experiment with HOP-62; 37.8 µM (inactive) in the experiment with SF-295; 30.3 µM (inactive) in the experiment on SNB-75; 32.7 µM (inactive) with SN12C; 16.6 µM (inactive) in the experiment with HL-60. Also, the GI50 with MDA-N was 19.4 µM (inactive).
For `O=C(CC(C(=O)c1cccs1)c1ccsc1)c1ccccc1` (centres undefined), the GI50 was 21.5 µM (inactive) in the experiment with A549; > 100 µM (inactive) in the experiment on Hs-578T; > 100 µM (inactive) in the experiment with LOX IMVI; 36.6 µM (inactive) in the experiment on MOLT-4; 30.7 µM (inactive) in the experiment on MCF7; > 100 µM (inactive) with 786-0. Further, the GI50 in the experiment on MDA-MB-435 was 31.4 µM (inactive); in the experiment with SF-539, > 100 µM (inactive); in the experiment on OVCAR-8 it was > 100 µM (inactive); with EKVX, > 100 µM (inactive); in the experiment on ACHN it was 69.5 µM (inactive); with KM12, 38.9 µM (inactive). In addition, the GI50 in the experiment with COLO 205 is > 100 µM (inactive); in the experiment with HOP-62, > 100 µM (inactive); in the experiment on SF-295 it was > 100 µM (inactive); with SNB-75, > 100 µM (inactive); in the experiment with NCI-H522 it was 61.7 µM (inactive); in the experiment with SN12C, > 100 µM (inactive). Also, in the experiment on MDA-N, the GI50 is 37.5 µM (inactive).
On to `CCOP(=O)(OCC)/C(=C/c1cccs1)CC(C)=O`, for which the GI50 in the experiment with A549 is > 100 µM (inactive); with Hs-578T, > 100 µM (inactive); with LOX IMVI it was > 100 µM (inactive); in the experiment on MOLT-4, 9.71 µM (inactive); with MCF7 it was > 100 µM (inactive); in the experiment with 786-0, > 100 µM (inactive). Also, the GI50 in the experiment on MDA-MB-435, in the experiment with SF-539, in the experiment with OVCAR-8, with EKVX, with ACHN and in the experiment with KM12 was > 100 µM (inactive) in each case. Also, the GI50 with COLO 205, in the experiment with HOP-62, in the experiment with SF-295, in the experiment on SNB-75, in the experiment on SN12C and with MDA-N was > 100 µM (inactive) in each case.
With `O=C(O)c1ccccc1C(=O)c1ccc2c(c1)Cc1ccccc1-2`, the GI50 is 33.3 µM (inactive) in the experiment on A549; > 100 µM (inactive) in the experiment with Hs-578T; 85.7 µM (inactive) with LOX IMVI; > 100 µM (inactive) in the experiment on MOLT-4; > 100 µM (inactive) in the experiment on MCF7; > 100 µM (inactive) in the experiment with 786-0. Besides, the GI50 with MDA-MB-435 is 63.4 µM (inactive); in the experiment on SF-539 it was > 100 µM (inactive); with OVCAR-8, 83.2 µM (inactive); in the experiment with EKVX, 68.5 µM (inactive); in the experiment on ACHN, 56.6 µM (inactive); in the experiment on KM12 it was 64.1 µM (inactive). The GI50 in the experiment with COLO 205 is 57 µM (inactive); with HOP-62, > 100 µM (inactive); in the experiment with SF-295, 69.7 µM (inactive); with SNB-75, > 100 µM (inactive); with NCI-H522, 41.9 µM (inactive); in the experiment on SN12C, > 100 µM (inactive). Further, the GI50 in the experiment with MDA-N was 48.8 µM (inactive).
For `O=c1oc2ccc(Cl)cc2cc1-c1cn2ccccc2n1`, the GI50 with A549 was 14.7 µM (inactive); in the experiment with Hs-578T, 7.83 µM (inactive); in the experiment on LOX IMVI it was 15 µM (inactive); in the experiment on MOLT-4 it was > 100 µM (inactive); in the experiment with MCF7 it was 24.5 µM (inactive); in the experiment on 786-0, 3.24 µM (inactive). For the same compound, the GI50 in the experiment on MDA-MB-435 is > 100 µM (inactive); in the experiment on SF-539, 8.09 µM (inactive); with OVCAR-8, 9.62 µM (inactive); in the experiment on EKVX, 28.8 µM (inactive); in the experiment with ACHN, 2.64 µM (inactive); in the experiment with KM12 it was > 100 µM (inactive). In addition, the GI50 with COLO 205 is > 100 µM (inactive); in the experiment on HOP-62, 3.67 µM (inactive); with SF-295, 8.38 µM (inactive); in the experiment on SNB-75, 15.3 µM (inactive); in the experiment on NCI-H522, 36.6 µM (inactive); in the experiment with SN12C, 7.76 µM (inactive). The GI50 in the experiment with MDA-N was > 100 µM (inactive).
Regarding `Nc1nc2c(c(=O)[nH]1)C(c1ccccc1)CC(=O)N2` (centres undefined), the GI50 in the experiment on A549, in the experiment on Hs-578T, in the experiment with LOX IMVI, in the experiment with MOLT-4, with MCF7 and in the experiment on 786-0 was > 100 µM (inactive) each time. In addition, the GI50 in the experiment with MDA-MB-435, in the experiment with SF-539, with OVCAR-8, in the experiment with EKVX, in the experiment on ACHN and in the experiment with KM12 was > 100 µM (inactive) each time. In addition, the GI50 in the experiment with COLO 205, in the experiment with HOP-62, in the experiment on SF-295, with SNB-75, in the experiment on SN12C and in the experiment on MDA-N was > 100 µM (inactive) in each case.
Turning to `COc1ccc(C2C(=O)c3c(OC)cc(OC)cc3OC2c2cccnc2)cc1` (centres undefined), the GI50 in the experiment on A549 is > 100 µM (inactive); with Hs-578T, > 100 µM (inactive); with LOX IMVI, 61.2 µM (inactive); in the experiment on MOLT-4, 46 µM (inactive); in the experiment with MCF7 it was > 100 µM (inactive); in the experiment with 786-0, > 100 µM (inactive). Also, the GI50 in the experiment on MDA-MB-435 was 44.5 µM (inactive); with SF-539, > 100 µM (inactive); with OVCAR-8, > 100 µM (inactive); in the experiment on EKVX, > 100 µM (inactive); in the experiment on ACHN, > 100 µM (inactive); in the experiment with KM12, > 100 µM (inactive). In addition, the GI50 was 70.3 µM (inactive) in the experiment with COLO 205; > 100 µM (inactive) with HOP-62; 53.5 µM (inactive) in the experiment on SF-295; 27.4 µM (inactive) with SNB-75; 35.8 µM (inactive) with NCI-H522; > 100 µM (inactive) in the experiment on SN12C. Moreover, the GI50 with MDA-N was 46.7 µM (inactive).
Consider `C/C(=N\c1ccc(Cl)cc1)c1ccncc1`, for which the GI50 was 4.73 µM (inactive) with A549; > 100 µM (inactive) with Hs-578T; > 100 µM (inactive) in the experiment with LOX IMVI; 3.4 µM (inactive) in the experiment with MOLT-4; 32.4 µM (inactive) in the experiment with MCF7; > 100 µM (inactive) with 786-0. The GI50 with MDA-MB-435 was 1.9 µM (inactive); with SF-539, 4.31 µM (inactive); with OVCAR-8, > 100 µM (inactive); with EKVX, 27.9 µM (inactive); in the experiment on ACHN it was 0.233 µM (active); in the experiment with KM12, > 100 µM (inactive). Besides, the GI50 is 5.64 µM (inactive) in the experiment with COLO 205; > 100 µM (inactive) with HOP-62; > 100 µM (inactive) with SF-295; > 100 µM (inactive) in the experiment with SNB-75; > 100 µM (inactive) in the experiment on NCI-H522; > 100 µM (inactive) in the experiment with SN12C. Moreover, the GI50 in the experiment with MDA-N was > 100 µM (inactive).
